“And” between values parts separate entries of the source, which are not always exact repeats. Identical values can stand only once. “Also recorded” adds a separate entry of the source. Like-named read-outs stand apart in the source and are kept apart here.
Assays:
AKT = test: IMAP-based AKT fluorescent polarization counter-screen; format: biochemical; details: read-out: IC50 AKT (Ave ± SD)
Procedure: (§1) Automated, highthroughput screening (HTS) formatted IMAP-based AKT fluorescent polarization assay (AKT FP), and PLK1 and CAK TR-FRET assays were used to assess the specificity of the PKD analogs as previously described. See Sharlow, E. R., et. al., J. Biol Chem, 283: 33516-33526, (2008). For the PLK2 IMAP TR-FRET assay, PLK2 kinase reactions were generated by the stepwise addition of a 3-fold excess concentration of substrate/ATP (1650 nM/105 μM), analog, and PLK2 enzyme (1.02 milliunits/μL). PLK2 kinase reactions were incubated for 150 min at room temperature and stopped with the addition of an IMAP binding reagent supplemented with terbium. Assay plates were then incubated overnight. Analysis was performed as described in the literature. Id.
(§2) The PLK2 substrate (FAM-[…]) was obtained from Molecular Devices (Sunnyvale, Calif.). H-89 was used as a positive inhibitory control compound in the assays. A 10 point concentration range for each compound to be tested was used to determine IC50 values. The maximum concentration of a particular compound used in this assay was either 50 μM, or 100 μM, depending on the solubility of the individual compounds. Each experiment was assayed in triplicate and data is represented as average IC50±SD. The IC50 determinations for each analog evaluated in the IMAP (PLK2, PLK1, CAK, and AKT) formats were conducted within the linear range of the captured signal readout.

PKD1 [1] = target: T1, PKD1 (Homo sapiens, UniProt Q15139); test: Cellular inhibition of PMA-induced PKD1 S916 autophosphorylation in LNCaP cells (Western blot densitometry); format: cell-based; design: endogenous in cells; host or cells: LNCaP prostate cancer cells; details: for IC50: PKD1 autophosphorylation at S916 in LNCaP cells
T1 sequence (Q15139 1-912): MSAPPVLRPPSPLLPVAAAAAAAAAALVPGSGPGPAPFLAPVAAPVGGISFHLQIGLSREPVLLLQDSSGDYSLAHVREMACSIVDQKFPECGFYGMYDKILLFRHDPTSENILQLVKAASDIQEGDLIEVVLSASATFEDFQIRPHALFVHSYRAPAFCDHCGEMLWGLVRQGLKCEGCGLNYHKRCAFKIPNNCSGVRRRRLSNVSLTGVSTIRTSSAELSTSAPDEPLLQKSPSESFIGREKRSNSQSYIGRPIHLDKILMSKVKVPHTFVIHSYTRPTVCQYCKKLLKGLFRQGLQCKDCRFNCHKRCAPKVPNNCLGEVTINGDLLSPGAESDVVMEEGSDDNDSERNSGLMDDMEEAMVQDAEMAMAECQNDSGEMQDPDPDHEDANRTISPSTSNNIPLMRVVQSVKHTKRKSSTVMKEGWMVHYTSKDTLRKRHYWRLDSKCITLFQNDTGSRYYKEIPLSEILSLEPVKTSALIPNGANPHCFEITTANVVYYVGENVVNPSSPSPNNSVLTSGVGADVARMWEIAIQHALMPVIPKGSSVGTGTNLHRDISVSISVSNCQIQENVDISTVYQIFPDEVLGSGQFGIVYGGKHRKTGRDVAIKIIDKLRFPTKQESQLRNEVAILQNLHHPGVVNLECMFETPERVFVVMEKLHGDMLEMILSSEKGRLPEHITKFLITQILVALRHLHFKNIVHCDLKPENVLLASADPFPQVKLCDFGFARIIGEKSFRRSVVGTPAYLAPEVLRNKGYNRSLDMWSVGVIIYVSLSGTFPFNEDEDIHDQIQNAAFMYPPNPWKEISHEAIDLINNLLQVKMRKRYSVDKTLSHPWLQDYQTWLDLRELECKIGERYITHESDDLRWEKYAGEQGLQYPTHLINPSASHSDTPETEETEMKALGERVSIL
Procedure: The compound to be tested was dissolved in DMSO at an initial concentration of 10 mM. LNCaP prostate cancer cells were pre-treated with DMSO or increasing concentrations of the compound for 45 min, followed by treatment with or without 100 nM phorbol 12-myristate 13-acetate (PMA), an activator of PKD, for 20 min. The cells were harvested for Western blot analysis.
Briefly, cells were lysed in lysis buffer containing 200 mM Tris-HCl, pH 7.4, 100 μM 4-(2-aminoethyl)benzenesulfonyl fluoride, 1 mM EGTA, and 1% Triton X-100. Protein concentration was determined using the BCA Protein Concentration Assay reagent kit (Pierce). Equal amounts of protein were subjected to SDS-PAGE followed by electrotransfer to nitrocellulose membranes. Membranes were blocked with 5% nonfat milk in Tris-buffered saline and then probed with primary antibodies for p-S916-PKD1 (Millipore), p-S744/748-PKD1 (Cell Signaling Technology), or GAPDH (Enzo), followed by anti-mouse or anti-rabbit secondary antibodies conjugated to horseradish peroxidase (Bio-Rad). The bands were detected by incubating with the enhanced chemiluminescence (ECL) Western blotting detection reagent (Amersham Biosciences) and exposing to X-ray films.

[2] = target: T2, purified recombinant human PKD1 (Homo sapiens, UniProt Q15139); test: radiometric PKD kinase activity assay; format: biochemical
T2 sequence (Q15139 1-912): T1 sequence (Q15139 1-912)
Procedure: The radiometric PKD kinase assay was carried out by co-incubating 0.5 μCi γ-32P-ATP (PerkinElmer, Boston, Mass.), 20 μM ATP, 50 ng purified recombinant human PKD (PKD1, PKD2, PKD3) proteins, and 2.5 μg Syntide-2 (Sigma) in 50 μl kinase buffer that contains 50 mM Tris-HCl, pH 7.5, 4 mM MgCl2, 10 mM β-mercaptoethanol. The reaction was carried out under sub-saturation conditions, such that the initial rate was within linear kinetic range. The reaction mixture was incubated at 30° C. for 10 min, followed by spotting 25 μl of the mix onto a Whatman P81 filter paper (Whatman Inc, Clifton, N.J.). The filter papers were then washed three times in 0.5% phosphoric acid, air-dried, and counted using a Beckman LS6500 multi-purpose scintillation counter (Beckman, Fullerton, Calif.).

CAK (CDK7) = CAK (CDK7) (Homo sapiens, UniProt P50613); test: IMAP CAK TR-FRET counter-screen; format: biochemical; details: read-out: IC50 CAK(CDK7) (Ave ± SD)
Sequence of CAK (CDK7) (P50613 whole entry, species assumed): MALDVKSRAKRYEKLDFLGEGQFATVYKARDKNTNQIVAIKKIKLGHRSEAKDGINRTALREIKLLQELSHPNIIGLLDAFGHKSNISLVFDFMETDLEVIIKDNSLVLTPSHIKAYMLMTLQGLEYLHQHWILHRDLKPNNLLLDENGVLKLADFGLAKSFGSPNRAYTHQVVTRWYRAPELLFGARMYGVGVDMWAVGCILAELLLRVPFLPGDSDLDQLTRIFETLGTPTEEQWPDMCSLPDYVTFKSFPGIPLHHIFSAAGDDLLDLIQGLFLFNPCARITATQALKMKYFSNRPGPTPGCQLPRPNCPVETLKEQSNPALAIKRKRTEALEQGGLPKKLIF
Sequence of CAK (CDK7) (P51946 whole entry partner, species assumed): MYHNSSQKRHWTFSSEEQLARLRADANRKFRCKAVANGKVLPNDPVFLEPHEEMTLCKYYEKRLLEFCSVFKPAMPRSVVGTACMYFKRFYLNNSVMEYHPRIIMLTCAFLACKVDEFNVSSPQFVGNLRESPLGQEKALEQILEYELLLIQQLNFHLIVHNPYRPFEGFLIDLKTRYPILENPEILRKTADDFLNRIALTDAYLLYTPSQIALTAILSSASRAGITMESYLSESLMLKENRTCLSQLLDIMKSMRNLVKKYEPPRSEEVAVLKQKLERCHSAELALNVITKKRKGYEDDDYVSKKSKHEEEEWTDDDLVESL
Sequence of CAK (CDK7) (P51948 whole entry partner, species assumed): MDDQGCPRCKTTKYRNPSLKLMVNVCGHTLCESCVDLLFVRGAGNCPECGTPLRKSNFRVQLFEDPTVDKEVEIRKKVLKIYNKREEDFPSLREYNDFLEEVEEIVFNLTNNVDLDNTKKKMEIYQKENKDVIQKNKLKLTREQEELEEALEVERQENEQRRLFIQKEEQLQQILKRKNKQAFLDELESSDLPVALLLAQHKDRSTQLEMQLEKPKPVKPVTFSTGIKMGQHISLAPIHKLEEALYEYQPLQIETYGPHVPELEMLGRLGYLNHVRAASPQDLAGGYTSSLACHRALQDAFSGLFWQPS
Procedure: as §1, §2

PLK2 = PLK2 (Homo sapiens, UniProt Q9NYY3); test: PLK2 IMAP TR-FRET counter-screen; format: biochemical; details: read-out: IC50 PLK2 (Ave ± SD)
Sequence of PLK2 (Q9NYY3 whole entry, species assumed): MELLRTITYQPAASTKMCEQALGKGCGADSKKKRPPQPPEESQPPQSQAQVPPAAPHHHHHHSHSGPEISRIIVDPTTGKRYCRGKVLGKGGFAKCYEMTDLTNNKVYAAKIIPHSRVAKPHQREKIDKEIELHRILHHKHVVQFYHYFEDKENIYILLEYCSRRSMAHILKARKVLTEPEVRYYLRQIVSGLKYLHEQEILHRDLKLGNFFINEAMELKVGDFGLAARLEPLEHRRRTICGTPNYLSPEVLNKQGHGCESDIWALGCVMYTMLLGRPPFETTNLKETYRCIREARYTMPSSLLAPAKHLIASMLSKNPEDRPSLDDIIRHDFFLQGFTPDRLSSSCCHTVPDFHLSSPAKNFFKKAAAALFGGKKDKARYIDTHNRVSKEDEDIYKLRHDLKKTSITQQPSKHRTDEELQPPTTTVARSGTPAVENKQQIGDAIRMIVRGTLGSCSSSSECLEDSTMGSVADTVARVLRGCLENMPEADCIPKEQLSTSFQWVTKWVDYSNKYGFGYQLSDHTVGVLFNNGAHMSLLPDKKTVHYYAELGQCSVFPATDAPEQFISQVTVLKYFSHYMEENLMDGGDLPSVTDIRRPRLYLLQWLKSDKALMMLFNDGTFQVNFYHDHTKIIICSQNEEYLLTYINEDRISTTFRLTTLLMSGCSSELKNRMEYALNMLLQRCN
Procedure: as §1, §2

PLK1 = PLK1 (Homo sapiens, UniProt P53350); test: IMAP PLK1 TR-FRET counter-screen; format: biochemical; details: read-out: IC50 PLK1 (Ave ± SD)
Sequence of PLK1 (P53350 whole entry, species assumed): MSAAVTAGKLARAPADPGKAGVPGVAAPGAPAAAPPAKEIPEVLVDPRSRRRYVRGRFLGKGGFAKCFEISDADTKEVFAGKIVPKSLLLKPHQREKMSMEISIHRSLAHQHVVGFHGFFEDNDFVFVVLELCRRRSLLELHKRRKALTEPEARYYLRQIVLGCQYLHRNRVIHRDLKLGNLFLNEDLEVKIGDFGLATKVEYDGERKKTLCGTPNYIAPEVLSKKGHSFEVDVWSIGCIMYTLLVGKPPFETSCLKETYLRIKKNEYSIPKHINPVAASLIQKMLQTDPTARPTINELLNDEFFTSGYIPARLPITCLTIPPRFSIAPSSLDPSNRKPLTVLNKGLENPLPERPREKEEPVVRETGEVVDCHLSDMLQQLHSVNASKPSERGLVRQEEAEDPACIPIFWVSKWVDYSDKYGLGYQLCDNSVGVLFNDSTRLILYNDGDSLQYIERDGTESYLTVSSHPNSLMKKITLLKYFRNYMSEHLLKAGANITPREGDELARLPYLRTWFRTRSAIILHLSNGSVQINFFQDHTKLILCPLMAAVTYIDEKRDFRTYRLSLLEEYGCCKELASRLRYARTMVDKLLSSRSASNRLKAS
Procedure: as §1, §2

PKD1 [3] = target: T1, PKD1; test: IMAP-FP PKD1 assay; format: biochemical
From the text: See Sharlow, E. R., et. al., J Biol Chem, 283: 33516-33526, (2008). The assay established the concentration of inhibitor that is required to reduce PKD1 activity by 50% (IC50), as shown in Table 2 above.

[4] = stability in protic solvents; format: physicochemical
[5] = radiometric kinase activity assay, in vitro, read-out: IC50 PKD1
[6] = read-out: IC50 radiometric PKD1

IC50 [2, 6]	IC50 (PKD1 [3])	stability in protic solvents [4]	PKD inhibition, in words [2]	melting point	SMILES	IC50 (AKT)	IC50 (PKD1 [1])	IC50 [2, 5]	IC50 (CAK (CDK7))	IC50 (PLK2)	IC50 (PLK1)	cellular PKD1 inhibition, in words (PKD1 [1]; PMA-induced PKD1 autophosphorylation at S916, LNCaP)	cellular IC50 fold lower than CID755673 (PKD1 [1])	fold more potent than CID755673 (in vitro PKD1 IC50) [2]
–	2.14 ± 0.12 µM	–	–	–	O=C1NCCCc2c1[nH]c1ccc(O)cc21 [kb-NB123-57, 3,4,5,10-Tetrahydro-7-hydroxy-azepino[3,4-b]indol-1(2H)-one]	> 100 µM	> 50 µM	0.13 µM	39.2 ± 10.2 µM	> 100 µM	> 100 µM	no significant cellular activity; also recorded: weaker inhibition	–	–
–	–	–	–	–	O=C1NCCSc2c1sc1ccc(O)cc21 [kb-NB142-70, 3,4-Dihydro-9-hydroxy-[1]benzothieno[2,3-f]-1,4-thiazepin-5(2H)-one]	> 100 µM	2.2 µM	0.0283 ± 0.0023 µM	12 ± 0.6 µM	39 ± 3.4 µM	17 ± 7.7 µM	–	5 fold	~7 fold
–	–	–	–	–	O=C1NCCCSc2c1sc1ccc(O)cc21 [kb-NB165-92, 2,3,4,5-Tetrahydro-10-hydroxybenzo[b]thieno[2,3-f]-1,5-thiazocin-6-one]	> 50 µM	2.6 µM and 2.56 µM	0.111 ± 0.006 µM	11 ± 3.3 µM	28 ± 3.1 µM	13 ± 7.7 µM	–	–	–
–	–	–	–	–	COc1ccc2sc3c(c2c1)SCCNC3=O [kb-NB165-09, 3,4-Dihydro-9-methoxy-[1]benzothieno[2,3-f]-1,4-thiazepin-5(2H)-one]	> 50 µM	3.1 ± 0.5 µM	0.0825 ± 0.0046 µM	17.1 ± 13.6 µM	> 50 µM	> 50 µM	–	–	–
25.3 µM	–	spontaneously degrade in protic solvents	only weak inhibitory effect	–	O=C1NCCSc2c1sc1cnc(O)nc21 [kmg-NB4-69A, 2-Hydroxy-7H,8H,9H-1,4-thiazepino[7′,6′-5,4]thiopheno[3,2-d]pyrimidin-6-one]	–	–	–	–	–	–	–	–	–
0.08 ± 0.01 µM	–	–	–	193 °C (dec.)	[N-]=[N+]=Nc1ccc2sc3c(c2c1)SCCNC3=O [mcf292-08, 3,4-Dihydro-9-azido-[1]benzothieno[2,3-f]-1,4-thiazepin-5(2H)-one]	> 50 µM	2.2 µM and 2.17 µM	0.0749 µM	> 50 µM	> 50 µM	> 50 µM	–	–	–
0.12 ± 0.03 µM	–	–	potent nanomolar inhibitor	308 °C (dec.)	COc1ncc2sc3c(c2n1)SCCNC3=O [kmg-NB4-23, 2-Methoxy-7H,8H,9H-1,4-thiazepino[7′,6′-5,4]thiopheno[3,2-d]pyrimidin-6-one]	> 100 µM	6.8 ± 1.3 µM	0.124 µM	> 100 µM	> 100 µM	> 100 µM	–	–	–

SMILES	IC50 [2, 6]	IC50 (PKD1 [3])	stability in protic solvents [4]	PKD inhibition, in words [2]	melting point	IC50 (AKT)	IC50 (PKD1 [1])	IC50 [2, 5]	IC50 (CAK (CDK7))	IC50 (PLK2)	IC50 (PLK1)	cellular PKD1 inhibition, in words (PKD1 [1]; PMA-induced PKD1 autophosphorylation at S916, LNCaP)	cellular IC50 fold lower than CID755673 (PKD1 [1])	fold more potent than CID755673 (in vitro PKD1 IC50) [2]
COc1ccc2sc3c(c2c1)SCCCNC3=O [kb-NB184-02, 2,3,4,5-Tetrahydro-10-methoxybenzo[b]thieno[2,3-f]-1,5-thiazocin-6-one]	0.19 ± 0.03 µM	–	–	–	–	> 100 µM	18.6 ± 2 µM	0.193 ± 0.027 µM	9 ± 4.1 µM	> 50 µM	> 50 µM	–	–	–
